Assay results reported in patent US20240182492A1, “AZAHETEROARYL COMPOUND, PREPARATION METHOD THEREFOR, AND APPLICATION THEREOF” (SHANGHAI BLUERAY BIOPHARMA CO., LTD., priority 2021, published 2024).

What was measured:
[1] = test system: B-cell non-Hodgkin lymphoma cells KARPAS-422; assay: Cell proliferation analysis, KARPAS-422, 13 days, CellTiter-Glo; type: cell-based, Human; details: Karpas-422, 13 days
Experimental: Example 55: Cell Proliferation Analysis
Human B-cell non-Hodgkin lymphoma cells KARPAS-422 S were cultured in culture flasks using standard cell culture conditions. The culture medium contains 15% fetal bovine serum (FBS, Invitrogen, product number 10099-141), 1% penicillin/streptomycin solution (P/S) RPMI-1640 (Invitrogen, product number 11875), and the culture flask is placed and cultured in a sterile incubator at 37° C., 95% relative humidity, and 5% CO2. In order to detect the effect of PRC2 inhibitors on cell proliferation, cells in the exponential growth phase were seeded into 96-well plates (Corning, product number 3904) at a density of 1×10^4 cells/well, and 100 μL of medium was added to each well. Subsequently, the compounds disclosed herein at different concentrations were added to the wells seeded with cells (9 concentration gradients were set for each compound, and the highest detection concentration was 10 μM, 3-fold gradient dilution), and 2 repeats in parallel were set for each treatment concentration. The final concentration of DMSO is 0.5%. Then the number of surviving cells was counted with Vi-CELL (Beckman Coulter) every 3-4 days. The cells counted each time were seeded into a new 96-well plate at the same density (1×10^4 cells/well). The wells were supplemented with fresh medium to 100 μL, and different concentrations of the compound were added at the same time. The cells were cultured until the 13th day, on which 100 μL of CellTiter-Glo (CellTiter-GloCellTiter-GloCellTiter-GloCTG) (Promega, Product No. G7573) was added to each well. The plate was placed for 10-20 minutes in the dark at room temperature, and Molecular Devices and SpectraMax i3X were used to read the luminous signal. The data were fitted to a dose-response curve using GraphPad prisim5 and the IC50 values of the tested compounds were obtained.

[2] = test system: trimethylation level of histone H3K27 in G401 cells; assay: ELISA (H3K27 trimethylation) analysis in G401 cells; type: cell-based; details: H3K27me3 normalized by H3
Experimental: Example 54: ELISA (H3K27 Trimethylation) Analysis
Representative compounds of the present disclosure are diluted in DMSO with 3-fold gradient, and 10 concentration gradients are tested per compound. The maximum testing concentration is 10 μM. The compound is diluted 200-fold into G401 cells cultured in 96-well plates (the final concentration of DMSO is 0.5%). After the cells are cultured for 72 hours, the trimethylation level of histone H3K27 is detected by ELISA method.
Histone extraction: compound-treated cells in a 96-well plate are washed 3 times with 1×PBS (10×PBS buffer (80 g NaCl (Sigma, Product No. S3014), 2 g KCl (Sigma, Product No. 60128), 14.4 g Na2HAPO4 (Sigma, Product No. S5136) and 2.4 g KH2PO4 (Sigma, Product No. P9791) are added to 1 L water, pH to 7.4), and 100 μL of 0.4N HCl is added to each well. The 96-well plate is placed at 4° C. and gently shaken for 2 hours to lyse the cells. The cell lysate is then neutralized with 80 μL of neutralization buffer (0.5M disodium hydrogen phosphate, pH 12.5, 2.5 mM DTT; 1% cocktail (Sigma, Product No. P8340) (mixing the cell lysate and neutralization buffer thoroughly).
ELISA detection method: the cell lysates are transferred in parallel to two 384-well assay plates (PerkinElmer, OptiPlate-384HB, Product No. 6007290). One plate is used to detect the trimethylation level of H3K27, and the other plate is used to measure the level of H3. PBS is adjusted to a final volume of 50 μL/well. The wells are coated overnight at 4° C. On the next day, the solution in the wells was discarded. TBST buffer (1 xTBS (10×TBS: 24.2 g Tris (Sigma, Product No. T6066) and 80 g NaCl (Sigma, Product No. S3014) are added to 1 L water, and pH is adjusted to 7.6 with HCl) and 0.1% Tween-20) is used to wash it 5 times, and the water is dried on absorbent papers. 70 μL of blocking buffer (TBST, 5% BSA) is added to the coated reaction wells, and the wells are incubated for 1 hour at room temperature. The blocking buffer was discarded, and the primary antibody is added (30 μL/well). The required primary antibodies are diluted with blocking buffer, and the dilution ratios were as follows: anti-H3K27me3 antibody (Cell Signaling Technology, Product No. 9733), 1:2000 dilution; anti-H3 antibody (Cell Signaling Technology, Product No. 4499), 1:10000 dilution. After adding the primary antibody, the wells are incubated at room temperature for 1 hour. After washing with TBST for 5 times, the water are dried. The secondary antibody (30 μL/well) is added to each reaction well, and the wells are incubated at room temperature for 1 hour. Secondary antibody (anti-rabbit antibody (Jackson ImmunoResearch, Product No. 111-035-003)) is used after dilution 2000-fold in blocking buffer. After 1 hour, it is washed with TBST and dried. 30 μL of ECL substrate (Pierce, Product No. 34080) is added to each well and centrifuged for 30 seconds at 2000 rpm. Signal of each sample is detected using Molecular Devices, SpectraMax. Data processing: H3K27 methylation readings are first normalized by H3 signal. 0.500 DM8)-treated sample is used as a control, and the inhibition percentage of the compound is calculated. The data is fitted to a dose-response curve using the GraphPad prisim5 program, obtaining the IC50 values of the test compounds.

[3] = target: T1, EED protein (full-length, His6 tag) binding to H3K27me3 polypeptide (Homo sapiens, UniProt O75530); assay: AlphaScreen evaluation of blocking the binding of EED to H3K27Me3; details: EED / biotinylated H3K27me3 peptide competition
T1 construct: The full-length EED protein (441 amino acids) with His6 tag
T1 sequence (O75530 whole entry): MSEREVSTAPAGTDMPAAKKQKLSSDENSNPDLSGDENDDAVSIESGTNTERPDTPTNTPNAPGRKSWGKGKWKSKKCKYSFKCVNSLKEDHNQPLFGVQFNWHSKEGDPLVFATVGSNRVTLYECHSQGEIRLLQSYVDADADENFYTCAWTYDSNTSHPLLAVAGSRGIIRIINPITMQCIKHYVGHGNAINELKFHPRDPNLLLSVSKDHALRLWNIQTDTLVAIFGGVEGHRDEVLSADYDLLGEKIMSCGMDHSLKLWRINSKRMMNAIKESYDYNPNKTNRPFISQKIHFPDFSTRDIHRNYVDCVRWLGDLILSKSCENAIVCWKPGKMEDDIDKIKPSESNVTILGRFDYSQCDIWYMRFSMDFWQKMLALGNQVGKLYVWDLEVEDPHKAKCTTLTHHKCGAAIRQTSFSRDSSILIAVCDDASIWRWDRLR
Experimental: Example 53: Evaluation of the Effect of the Compound in Blocking the Binding of EED to H3K27Me3 by AlphaScreen (a-Screening) Method
First, compound solutions with different concentration gradients are prepared. Compound powder is dissolved in DMSO to form mother liquor. 1.5 μL of the compound mother liquor is taken to 198.5 μL reaction buffer (25 mM HEPES (pH 8.0), 50 mM NaCl, 0.015% Tween 20, 0.5% BSA) and the solution is mix uniformly, and then 3-fold gradient dilution is performed with the above buffer containing 0.75% DMSO. 9 different test concentrations are set for the same compound. 5 μL of compounds with different concentration gradients was taken to ProxiPlate-384 Plus, White detection plate (PerkinElmer, 6008280), and 2 parallel replicates are set for each concentration gradient.
Next, a binding blocking reaction is performed. The full-length EED protein (441 amino acids) with His6 tag is diluted to 60 nM with the above buffer, and the biotinylated polypeptide fragment H3K27me3 (amino acids 19-33) (Biotinylated-H3K27me3) is diluted to 75 nM with the same buffer. 5 μL of 75 nM peptide fragments and 5 μL of 60 nM protein are transferred to the testing wells containing the compound respectively. The testing plate is sealed with a film, and is incubated for 30 minutes at room temperature.
Finally, AlphaScreen method is used for detection. Before use, nickel chelate acceptor beads and streptavidin donor beads (Perkin Elmer, product number 6760619M) are mixed into the above reaction buffer at a ratio of 1:1, and then 5 μL of the above pre-mixed testing solution is added to each testing well. The final concentration of the donor beads and acceptor beads is 5 μg/mL. The testing plate is covered with tin foil and placed at room temperature in the dark for 1 hour. Signals are read using an AlphaScreen detector on a Spectra max i3. The AlphaScreen signal is normalized according to the readings obtained from the positive control (maximum signal control) and negative control (minimum signal control) to give the inhibition rate of different concentrations of the compound. After that, non-linear regression analysis was performed with GraphPad Prism 5, and dose-response equation Y=Bottom+(Top−Bottom)/(1+10^((Log IC50−X)*HillSlope)) is used to make an inhibition curve, obtaining the IC50 value of each compound. […]

[4] = Homo sapiens, KARPAS-422, 312 h

IC50 [1, 4] [µM]	IC50 [3] [µM]	IC50 [1] [µM]	Compound	IC50 ([2]; Homo sapiens, G-401, 72 h) [µM]	IC50 ([2]; 72 hours) [µM]
0.0087	0.0075	–	Cc1cc(-c2cnc(NCc3c(F)ccc4c3CCO4)n3cnnc23)c2ncnn2c1C(C)(C)O [2-(8-(5-(((5-fluoro-2,3-dihydrobenzofuran-4-yl)methyl)amino)-[1,2,4]triazolo[4,3-c]pyrimidin-8-yl)-6-methyl-[1,2,4]triazolo[1,5-a]pyridin-5-yl)propan-2-ol]	0.0024	–
0.0102	0.0113	–	CC(C)(O)Cc1ccc(-c2cnc(NCc3c(F)ccc4c3CCO4)n3cnnc23)c2ncnn12 [1-(8-(5-(((5-fluoro-2,3-dihydrobenzofuran-4-yl)methyl)amino)-[1,2,4]triazolo[4,3-c]pyrimidin-8-yl)-[1,2,4]triazolo[1,5-a]pyridin-5-yl)-2-methylpropan-2-ol]	0.0032	–
0.0041	0.0069	–	OC(CF)(CF)c1ccc(-c2cnc(NCc3c(F)ccc4c3CCO4)n3cnnc23)c2ncnn12 [1,3-difluoro-2-[8-(5-{[(5-fluoro-2,3-dihydro-1-benzofuran-4-yl)methyl]amino]-[1,2,4]triazolo[4,3-c]pyrimidin-8-yl)-[1,2,4]triazol[1,5-a]pyridin-5-yl]propan-2-ol]	0.0011	–
–	0.0089	0.0079	CCC(C)(O)c1ccc(-c2cnc(NCc3c(F)ccc4c3CCO4)n3cnnc23)c2ncnn12 (single isomer, unassigned) [Compound b]	–	0.0017
–	0.0064	0.002	CCC(O)c1ccc(-c2cnc(NCc3c(F)ccc4c3CCO4)n3cnnc23)c2ncnn12 (single isomer, unassigned) [Compound e]	–	0.0004
0.0048	0.0051	–	CC(O)(c1ccc(-c2cnc(NCc3c(F)ccc4c3CCO4)n3cnnc23)c2ncnn12)C(F)F (stereo not drawn) [1,1-difluoro-2-(8-(5-(((5-fluoro-2,3-dihydrobenzofuran-4-yl)methyl)amino)-[1,2,4]triazolo[4,3-c]pyrimidin-8-yl)-[1,2,4]triazolo[1,5-a]pyridin-5-yl)propan-2-ol]	0.0015	–
–	0.0089	–	Cc1ccc(-c2cnc(NCc3c(F)ccc4c3CCO4)n3cnnc23)c2ncnn12 [N-((5-fluoro-2,3-dihydrobenzofuran-4-yl)methyl)-8-(5-methyl-[1,2,4]triazolo[1,5-a]pyridin-8-yl)-[1,2,4]triazolo[4,3-c]pyrimidin-5-amine]	–	–
0.0033	0.0047	–	OC1(c2ccc(-c3cnc(NCc4c(F)ccc5c4CCO5)n4cnnc34)c3ncnn23)CC1 [1-[8-(5-{[(5-fluoro-2,3-dihydro-1-benzofuran-4-yl)methyl]amino]-[1,2,4]triazolo[4,3-c]pyrimidin-8-yl)-[1,2,4]triazol[1,5-a]pyridin-5-yl]cyclopropan-1-ol]	0.0009	–
0.0077	0.0035	–	CCC(O)(CC)c1ccc(-c2cnc(NCc3c(F)ccc4c3CCO4)n3cnnc23)c2ncnn12 [3-(8-(5-(((5-fluoro-2,3-dihydrobenzofuran-4-yl)methyl)amino)-[1,2,4]triazolo[4,3-c]pyrimidin-8-yl)-[1,2,4]triazolo[1,5-a]pyridin-5-yl)pentan-3-ol]	0.0024	–
0.0041	0.0054	–	CCC(C)(O)c1ccc(-c2cnc(NCc3c(F)ccc4c3CCO4)n3cnnc23)c2ncnn12 (single isomer, unassigned) [Compound a]	0.0012	–
–	0.0035	–	Cc1ccc(-c2cnc(NCc3c(F)ccc4c3[C@H]3C[C@H]3O4)n3cnnc23)c2ncnn12 [N-(((1aR,6bR)-5-fluoro-1a,6b-dihydro-1H-cyclopropeno[b]benzofuran-6-yl)methyl)-8-(5-methyl-[1,2,4]triazolo[1,5-a]pyridin-8-yl)-[1,2,4]triazolo[4,3-c]pyrimidin-5-amine]	–	–
–	0.0047	–	Fc1ccc2c(c1CNc1ncc(-c3cccn4ncnc34)c3nncn13)CCO2 [8-([1,2,4]triazolo[1,5-a]pyridin-8-yl)-N-((5-fluoro-2,3-dihydrobenzofuran-4-yl)methyl)-[1,2,4]triazolo[4,3-c]pyrimidin-5-amine]	–	–

Compound	IC50 [1, 4] [µM]	IC50 [3] [µM]	IC50 [1] [µM]	IC50 ([2]; Homo sapiens, G-401, 72 h) [µM]	IC50 ([2]; 72 hours) [µM]
CC(O)(c1ccc(-c2cnc(NCc3c(F)ccc4c3CCO4)n3cnnc23)c2ncnn12)C(F)(F)F (stereo not drawn) [1,1,1-trifluoro-2-(8-(5-(((5-fluoro-2,3-dihydrobenzofuran-4-yl)methyl)amino)-[1,2,4]triazolo[4,3-c]pyrimidin-8-yl)-[1,2,4]triazolo[1,5-a]pyridin-5-yl)propan-2-ol]	0.0088	0.0048	–	0.0019	–
CC(O)(c1ccc(-c2cnc(NCc3c(F)ccc4c3CCO4)n3cnnc23)c2ncnn12)C(F)(F)F (single isomer, unassigned) [Compound c]	0.0095	0.0025	–	0.0017	–
